Values joined by “and” are separate entries in the source; they are usually repeats but may differ in a detail not shown here. Equal entries are not always repeated. Values belong to the molecule of their own block, whether it stands above or below them.
Tested on: MDA-MB-231 complex spheroid viability
Assay: Anticancer human tumor MDA-MB-231/ATCC cell line growth inhibition;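 also: drug exposure lasted 7 days starting on day 3 of spheroid growth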
Conditions: for viability, T/C: stronger effect = lower value
How it was run: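 Complex spheroids of tumor cells with HUVEC and human MSCs, exposed to iadademstat combined with other agents. Each agent tested in half-log steps from near clinical Cmax (else 10 microM top), DMSO ≤0.25%.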

[1] = curve of first compound, second compound 0.1 µM
[2] = curve of first compound, second compound 0.316 µM
[3] = curve of first compound, second compound 1 µM
[4] = curve of first compound, second compound 3.16 µM
[5] = curve of first compound, second compound 10 µM
[6] = second compound 0.1 µM, first compound 0.0316 µM
[7] = second compound 0.1 µM, first compound 0.1 µM
[8] = second compound 0.1 µM, first compound 0.316 µM
[9] = second compound 0.1 µM, first compound 1 µM
[10] = second compound 0.1 µM, first compound 3.16 µM
[11] = second compound 0.1 µM, first compound 10 µM
[12] = second compound 0.316 µM, first compound 0.0316 µM
[13] = second compound 0.316 µM, first compound 0.1 µM
[14] = second compound 0.316 µM, first compound 0.316 µM
[15] = second compound 0.316 µM, first compound 1 µM
[16] = second compound 0.316 µM, first compound 3.16 µM
[17] = second compound 0.316 µM, first compound 10 µM
[18] = second compound 1 µM, first compound 0.0316 µM
[19] = second compound 1 µM, first compound 0.1 µM
[20] = second compound 1 µM, first compound 0.316 µM
[21] = second compound 1 µM, first compound 1 µM
[22] = second compound 1 µM, first compound 3.16 µM
[23] = second compound 1 µM, first compound 10 µM
[24] = second compound 3.16 µM, first compound 0.0316 µM
[25] = second compound 3.16 µM, first compound 0.1 µM
[26] = second compound 3.16 µM, first compound 0.316 µM
[27] = second compound 3.16 µM, first compound 1 µM
[28] = second compound 3.16 µM, first compound 3.16 µM
[29] = second compound 3.16 µM, first compound 10 µM
[30] = second compound 10 µM, first compound 0.0316 µM
[31] = second compound 10 µM, first compound 0.1 µM
[32] = second compound 10 µM, first compound 0.316 µM
[33] = second compound 10 µM, first compound 1 µM
[34] = second compound 10 µM, first compound 3.16 µM
[35] = second compound 10 µM, first compound 10 µM
[36] = second compound 0.1 µM, first compound 0.00949 µM
[37] = second compound 0.1 µM, first compound 0.03 µM
[38] = second compound 0.1 µM, first compound 0.0949 µM
[39] = second compound 0.1 µM, first compound 0.3 µM
[40] = second compound 0.1 µM, first compound 0.949 µM
[41] = second compound 0.1 µM, first compound 3 µM
[42] = second compound 0.316 µM, first compound 0.00949 µM
[43] = second compound 0.316 µM, first compound 0.03 µM
[44] = second compound 0.316 µM, first compound 0.0949 µM
[45] = second compound 0.316 µM, first compound 0.3 µM
[46] = second compound 0.316 µM, first compound 0.949 µM
[47] = second compound 0.316 µM, first compound 3 µM
[48] = second compound 1 µM, first compound 0.00949 µM
[49] = second compound 1 µM, first compound 0.03 µM
[50] = second compound 1 µM, first compound 0.0949 µM
[51] = second compound 1 µM, first compound 0.3 µM
[52] = second compound 1 µM, first compound 0.949 µM
[53] = second compound 1 µM, first compound 3 µM
[54] = second compound 3.16 µM, first compound 0.00949 µM
[55] = second compound 3.16 µM, first compound 0.03 µM
[56] = second compound 3.16 µM, first compound 0.0949 µM
[57] = second compound 3.16 µM, first compound 0.3 µM
[58] = second compound 3.16 µM, first compound 0.949 µM
[59] = second compound 3.16 µM, first compound 3 µM
[60] = second compound 10 µM, first compound 0.00949 µM
[61] = second compound 10 µM, first compound 0.03 µM
[62] = second compound 10 µM, first compound 0.0949 µM
[63] = second compound 10 µM, first compound 0.3 µM
[64] = second compound 10 µM, first compound 0.949 µM
[65] = second compound 10 µM, first compound 3 µM

SMILES: CCN(c1cc(-c2ccc(CN3CCOCC3)cc2)cc(C(=O)NCc2c(C)cc(C)[nH]c2=O)c1C)C1CCOCC1
viability, T/C (compound 0.00949 µM): 90.6% and 108%
viability, T/C (compound 0.03 µM): 93.6% and 88.1%
viability, T/C (compound 0.0949 µM): 82.4% and 61.5%
viability, T/C (compound 0.3 µM): 74.9% and 42.3%
viability, T/C (compound 0.949 µM): 66.3% and 25.8%
viability, T/C (compound 3 µM): 57.7% and 15%

SMILES: CC1COCCN1c1cc(C2(S(C)(=N)=O)CC2)nc(-c2ccnc3[nH]ccc23)n1 (centres undefined) + NC1CC1c1ccc(-c2cccc(O)c2)cc1
IC50 [1]: 952 nM
IC50 [2]: 749 nM
IC50 [3]: 537 nM
IC50 [4]: 832 nM
IC50 [5]: 490 nM
viability, T/C [6]: 90.7%
viability, T/C [7]: 90.3%
viability, T/C [8]: 87%
viability, T/C [9]: 47.6%
viability, T/C [10]: 31.5%
viability, T/C [11]: 22.4%
viability, T/C [12]: 71.7%
viability, T/C [13]: 74.8%
viability, T/C [14]: 74.5%
viability, T/C [15]: 42%
viability, T/C [16]: 23.3%
viability, T/C [17]: 20.3%
viability, T/C [18]: 53.6%
viability, T/C [19]: 68.1%
viability, T/C [20]: 57.4%
viability, T/C [21]: 40.4%
viability, T/C [22]: 23.9%
viability, T/C [23]: 20.9%
viability, T/C [24]: 72.4%
viability, T/C [25]: 80.1%
viability, T/C [26]: 72.7%
viability, T/C [27]: 45.6%
viability, T/C [28]: 23%
viability, T/C [29]: 21.1%
viability, T/C [30]: 57.1%
viability, T/C [31]: 59.7%
viability, T/C [32]: 56.4%
viability, T/C [33]: 40.1%
viability, T/C [34]: 23.6%
viability, T/C [35]: 18.7%

IC50 (curve of compound): 81.6 nM and 30.6 nM
SMILES: O=C(C=Cc1cccc(S(=O)(=O)Nc2ccccc2)c1)NO
viability, T/C (compound 0.00949 µM): 82.2% and 70.1%
viability, T/C (compound 0.03 µM): 62.3% and 50.3%
viability, T/C (compound 0.0949 µM): 52.9% and 31.3%
viability, T/C (compound 0.3 µM): 24.5% and 17.3%
viability, T/C (compound 0.949 µM): 13.2% and 0.72%

SMILES: COc1cc(C2c3cc4c(cc3C(OC3OC5COC(C)OC5C(O)C3O)C3COC(=O)C23)OCO4)cc(OC)c1O (centres undefined) + NC1CC1c1ccc(-c2cccc(O)c2)cc1
IC50 [1]: 22.6 nM
IC50 [2]: 13.4 nM
IC50 [3]: 15.4 nM
IC50 [4]: < 9.49 nM
IC50 [5]: < 9.49 nM
viability, T/C [36]: 67.5%
viability, T/C [37]: 43.7%
viability, T/C [38]: 28.4%
viability, T/C [39]: 25.9%
viability, T/C [40]: 15.5%
viability, T/C [41]: 12%
viability, T/C [42]: 55%
viability, T/C [43]: 38.7%
viability, T/C [44]: 27.1%
viability, T/C [45]: 20.5%
viability, T/C [46]: 14.2%
viability, T/C [47]: 11.3%
viability, T/C [48]: 56.7%
viability, T/C [49]: 41.7%
viability, T/C [50]: 24.9%
viability, T/C [51]: 23%
viability, T/C [52]: 14%
viability, T/C [53]: 11.9%
viability, T/C [54]: 48.6%
viability, T/C [55]: 32.3%
viability, T/C [56]: 23.5%
viability, T/C [57]: 20.3%
viability, T/C [58]: 14.7%
viability, T/C [59]: 11.7%
viability, T/C [60]: 38.2%
viability, T/C [61]: 25.5%
viability, T/C [62]: 24.9%
viability, T/C [63]: 20.1%
viability, T/C [64]: 11.6%
viability, T/C [65]: 10%

IC50 (curve of compound): > 10000 nM
SMILES: CC(C)c1c(-c2ccccc2)nc2c(C#N)c[nH]n2c1=O
viability, T/C (compound 0.0316 µM): 101% and 102%
viability, T/C (compound 0.1 µM): 94.7% and 104%
viability, T/C (compound 0.316 µM): 97.9% and 117%
viability, T/C (compound 1 µM): 106% and 112%
viability, T/C (compound 3.16 µM): 108% and 121%
viability, T/C (compound 10 µM): 102% and 113%

SMILES: Nc1ncn(C2CC(O)C(CO)S2)c(=O)n1 (centres undefined) + NC1CCC(NC2CC2c2ccccc2)CC1
IC50 [1]: 19.9 nM
IC50 [2]: 21.2 nM
IC50 [3]: 14.7 nM
IC50 [4]: 8.38 nM
IC50 [5]: 3.2 nM
viability, T/C (second compound 0.1 µM, first compound 0.000949 µM): 94.4%
viability, T/C (second compound 0.1 µM, first compound 0.003 µM): 78.2%
viability, T/C [36]: 63%
viability, T/C [37]: 44.3%
viability, T/C [38]: 24.2%
viability, T/C [39]: 12.3%
viability, T/C (second compound 0.316 µM, first compound 0.000949 µM): 93.2%
viability, T/C (second compound 0.316 µM, first compound 0.003 µM): 77.5%
viability, T/C [42]: 65.1%
viability, T/C [43]: 46.4%
viability, T/C [44]: 21.9%
viability, T/C [45]: 12%
viability, T/C (second compound 1 µM, first compound 0.000949 µM): 95.2%
viability, T/C (second compound 1 µM, first compound 0.003 µM): 77.8%
viability, T/C [48]: 58.5%
viability, T/C [49]: 37.7%
viability, T/C [50]: 19.5%
viability, T/C [51]: 11.2%
viability, T/C (second compound 3.16 µM, first compound 0.000949 µM): 77.2%
viability, T/C (second compound 3.16 µM, first compound 0.003 µM): 62.6%
viability, T/C [54]: 49.9%
viability, T/C [55]: 32%
viability, T/C [56]: 17.9%
viability, T/C [57]: 12%
viability, T/C (second compound 10 µM, first compound 0.000949 µM): 61.2%
viability, T/C (second compound 10 µM, first compound 0.003 µM): 50.1%
viability, T/C [60]: 37.6%
viability, T/C [61]: 23.8%
viability, T/C [62]: 15.9%
viability, T/C [63]: 12.6%

SMILES: O=C(C=Cc1cccc(S(=O)(=O)Nc2ccccc2)c1)NO + NC1CC1c1ccc(-c2cccc(O)c2)cc1
IC50 [1]: 20.3 nM
IC50 [2]: 13.2 nM
IC50 [3]: 11.4 nM
IC50 [4]: < 9.49 nM
IC50 [5]: < 9.49 nM
viability, T/C [36]: 61.6%
viability, T/C [37]: 44%
viability, T/C [38]: 31.3%
viability, T/C [39]: 19.1%
viability, T/C [40]: 1.09%
viability, T/C [41]: 74.2%
viability, T/C [42]: 55.9%
viability, T/C [43]: 35.5%
viability, T/C [44]: 24.9%
viability, T/C [45]: 17.7%
viability, T/C [46]: 0.33%
viability, T/C [47]: 56.4%
viability, T/C [48]: 52.5%
viability, T/C [49]: 37.2%
viability, T/C [50]: 20.9%
viability, T/C [51]: 19.7%
viability, T/C [52]: 0.58%
viability, T/C [53]: 56.9%
viability, T/C [54]: 47.9%
viability, T/C [55]: 31.1%
viability, T/C [56]: 18.4%
viability, T/C [57]: 15.8%
viability, T/C [58]: 0.63%
viability, T/C [59]: 58.4%
viability, T/C [60]: 31.4%
viability, T/C [61]: 18.4%
viability, T/C [62]: 12.8%
viability, T/C [63]: 5.16%
viability, T/C [64]: 0.34%
viability, T/C [65]: 37.3%

SMILES: O=C(c1cc(Cc2n[nH]c(=O)c3ccccc23)ccc1F)N1CCN(C(=O)C2CC2)CC1 + NC1CCC(NC2CC2c2ccccc2)CC1
IC50 [1]: > 10000 nM
IC50 [2]: > 10000 nM
IC50 [3]: > 10000 nM
IC50 [4]: 7580 nM
IC50 [5]: 2460 nM
viability, T/C [6]: 101%
viability, T/C [7]: 94.5%
viability, T/C [8]: 87.5%
viability, T/C [9]: 79.3%
viability, T/C [10]: 66.8%
viability, T/C [11]: 56.2%
viability, T/C [12]: 98.9%
viability, T/C [13]: 102%
viability, T/C [14]: 93.5%
viability, T/C [15]: 82.1%
viability, T/C [16]: 66.1%
viability, T/C [17]: 52.7%
viability, T/C [18]: 93.1%
viability, T/C [19]: 94.5%
viability, T/C [20]: 84.3%
viability, T/C [21]: 74.5%
viability, T/C [22]: 67.1%
viability, T/C [23]: 57.6%
viability, T/C [24]: 80.8%
viability, T/C [25]: 77.5%
viability, T/C [26]: 74.2%
viability, T/C [27]: 70.2%
viability, T/C [28]: 56.8%
viability, T/C [29]: 47.9%
viability, T/C [30]: 64.4%
viability, T/C [31]: 61.9%
viability, T/C [32]: 63%
viability, T/C [33]: 55.3%
viability, T/C [34]: 47.4%
viability, T/C [35]: 37.6%

Source: PubChem BioAssay AID1918953 (Molecular Pharmacology Branch, DTP, NCI, 2023)
